The term EC50 denotes the midpoint of the concentration-response curve. For orientation: Emax means the greatest response seen or fitted, relative to the assay's reference.

For 28 compounds, EC50 and Emax results are on record in patent publication US11111251B2, “Positive allosteric modulators of the muscarinic acetylcholine receptor M1” (Vanderbilt University, priority 2016, dated 2021).

In the test the target is T1, human mAChR M1 (Homo sapiens, UniProt P11229).
T1 sequence (P11229 1-460): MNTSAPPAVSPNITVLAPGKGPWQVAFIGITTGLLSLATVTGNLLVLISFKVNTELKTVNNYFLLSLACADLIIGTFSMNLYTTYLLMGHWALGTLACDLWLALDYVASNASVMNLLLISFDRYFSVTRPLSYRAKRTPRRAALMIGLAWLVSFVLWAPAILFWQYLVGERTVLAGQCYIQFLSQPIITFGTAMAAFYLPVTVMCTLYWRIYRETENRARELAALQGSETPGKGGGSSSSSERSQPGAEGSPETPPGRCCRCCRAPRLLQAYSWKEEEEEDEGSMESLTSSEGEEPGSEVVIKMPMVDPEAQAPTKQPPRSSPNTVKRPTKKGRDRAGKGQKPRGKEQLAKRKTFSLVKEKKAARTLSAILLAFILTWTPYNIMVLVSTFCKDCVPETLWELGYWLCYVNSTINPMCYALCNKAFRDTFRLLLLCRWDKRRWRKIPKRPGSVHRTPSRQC
Kind of test: mAChR M1 cell-based functional assay: calcium mobilization, positive allosteric modulator mode (increase in EC20 acetylcholine response). The following applies: Table 2, human M1; for EC50: read-out: Human M1 EC50; for Emax: read-out: Human M1 Emax (%). In short, it runs like this:
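PAM potency reflects the concentration-dependent increase in calcium response to an EC20 acetylcholine challenge, given 144 s into a 300 s read after compound addition at 4 s (EC80 follows at 230 s). Cells were hM1-expressing CHO-K1, loaded 50 min with Fluo-4 AM. Curves used 11 points at 1:3 dilutions and four-parameter logistic fitting.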

On to `Cn1cc(-c2ccc(Cc3cc(C(=O)NC4CCOCC4)nc4ccsc34)cc2)cn1` [Compound 268, 7-[[4-(1-methylpyrazol-4-yl)phenyl]methyl]-N-tetrahydropyran-4-yl-thieno[3,2-b]pyridine-5-carboxamide], for which the concentration giving a half-maximal response (EC50) turned out to be 0.0595 µM and the maximal effect (Emax) is 70.1%.
In the case of `Cn1ccc2nc(C(=O)NC3CC4(COC4)C3)cc(Cc3ccc(-c4nccs4)cc3)c21` [Compound 481, 1-methyl-N-(2-oxaspiro[3.3]heptan-6-yl)-7-[(4-thiazol-2-ylphenyl)methyl]pyrrolo[3,2-b]pyridine-5-carboxamide], the half-maximal effective concentration (EC50) turned out to be 0.386 µM and the Emax came to 57%.
On the same counts, the results for `Cc1ccc(Cc2cc(C(=O)NC3CCCCC3)nc3c(C)csc23)cn1` [Compound 101, N-cyclohexyl-3-methyl-7-[(6-methyl-3-pyridyl)methyl]thieno[3,2-b]pyridine-5-carboxamide] are 4.96 µM and 75.7%.
On the same counts, the results for `Cc1csc2c(Cc3ccc(-n4cccn4)cc3)cc(C(=O)N[C@H]3CCOC3)nc12` [Compound 317, 3-methyl-7-[(4-pyrazol-1-ylphenyl)methyl]-N-[(3S)-tetrahydrofuran-3-yl]thieno[3,2-b]pyridine-5-carboxamide] are 1.68 µM and 43.1%.
Take `Cc1ncc(Cc2cc(C(=O)N[C@H]3CC[C@@H]3O)nc3ccsc23)s1` [Compound 132, N-[(1S,2S)-2-hydroxycyclobutyl]-7-[(2-methylthiazol-5-yl)methyl]thieno[3,2-b]pyridine-5-carboxamide]: the EC50 was above 10 µM and the Emax is 54.9%.
For `O=C(NC1CN(C2COC2)C1)c1cc(Cc2ccc(-n3cccn3)cc2)c2sccc2n1` [Compound 433, N-[1-(oxetan-3-yl)azetidin-3-yl]-7-[(4-pyrazol-1-ylphenyl)methyl]thieno[3,2-b]pyridine-5-carboxamide], the half-maximal effective concentration (EC50) is 1.77 µM and the Emax stood at 65.4%.
On the same counts, the results for `Cc1nn(C)c(C)c1-c1ccc(Cc2cc(C(=O)NC3CC4(COC4)C3)nc3ccsc23)cc1` [Compound 241, N-(2-oxaspiro[3.3]heptan-6-yl)-7-[[4-(1,3,5-trimethylpyrazol-4-yl)phenyl]methyl]thieno[3,2-b]pyridine-5-carboxamide] are above 10 µM and 18.8%.
`Cn1cc(-c2ccc(Cc3cc(C(=O)N[C@@H]4CCOC4)nc4ccsc34)cc2)nn1` [Compound 150, 7-[[4-(1-methyltriazol-4-yl)phenyl]methyl]-N-[(3R)-tetrahydrofuran-3-yl]thieno[3,2-b]pyridine-5-carboxamide]: the EC50 worked out at 0.722 µM and the Emax turned out to be 88.5%.
On the same counts, the results for `Cc1nc(-c2ccc(Cc3cc(C(=O)N[C@H]4CCOC4)nc4ccsc34)cc2)cs1` [Compound 184, 7-[[4-(2-methylthiazol-4-yl)phenyl]methyl]-N-[(3S)-tetrahydrofuran-3-yl]thieno[3,2-b]pyridine-5-carboxamide] are 3.61 µM and 68.5%.
On the same counts, the results for `CO[C@@H]1CCCC[C@H]1NC(=O)c1cc(Cc2ccc(-c3cn(C)nn3)cc2)c2sccc2n1` [Compound 156, N-[(1R,2R)-2-methoxycyclohexyl]-7-[[4-(1-methyltriazol-4-yl)phenyl]methyl]thieno[3,2-b]pyridine-5-carboxamide] are 0.26 µM and 89.2%.
In the case of `Cn1ccc(-c2ccc(Cc3cc(C(=O)NC[C@@H]4CCCO4)nc4ccsc34)cn2)n1` [Compound 414, 7-[[6-(1-methylpyrazol-3-yl)-3-pyridyl]methyl]-N-[[(2S)-tetrahydrofuran-2-yl]methyl]thieno[3,2-b]pyridine-5-carboxamide], the EC50 amounted to 0.703 µM and the Emax came to 71.5%.
On the same counts, the results for `Cc1ccc(Cc2cc(C(=O)NC34CC5CC(CC(O)(C5)C3)C4)nc3c(C)csc23)cn1` [Compound 108, N-(3-hydroxy-1-adamantyl)-3-methyl-7-[(6-methyl-3-pyridyl)methyl]thieno[3,2-b]pyridine-5-carboxamide] are 5.27 µM and 48.4%.
In the case of `Cn1ccc2nc(C(=O)NC3CCOCC3)cc(Cc3ccc(-c4cscn4)cc3)c21` [Compound 451, 1-methyl-N-tetrahydropyran-4-yl-7-[(4-thiazol-4-ylphenyl)methyl]pyrrolo[3,2-b]pyridine-5-carboxamide], the EC50 is 0.184 µM and the Emax was found to be 71.7%.
On the same counts, the results for `Cc1ccc(Cc2cc(C(=O)N[C@@H]3CCOC[C@H]3O)nc3c(C)csc23)cn1` [Compound 104] are 0.164 µM and 86.8%.
`Cn1ccc2nc(C(=O)NC3CC4(COC4)C3)cc(Cc3ccc(-n4cccn4)cc3)c21` [Compound 449, 1-Methyl-N-(2-oxaspiro[3.3]heptan-6-yl)-7-[(4-pyrazol-1-ylphenyl)methyl]pyrrolo[3,2-b]pyridine-5-carboxamide]: the EC50 is 0.157 µM and the Emax was found to be 73.1%.
On to `Cn1ccc(-c2ccc(Cc3cc(C(=O)NC[C@@H]4CCOC4)nc4ccsc34)cn2)n1` [Compound 357], for which the EC50 was found to be 0.458 µM and the Emax came to 86.5%.
For the compound `O=C(NC1CCC(F)(F)CC1)c1cc(Cc2ccc(-c3nccs3)cc2)c2sccc2n1` [Compound 385, N-(4,4-difluorocyclohexyl)-7-[(4-thiazol-2-ylphenyl)methyl]thieno[3,2-b]pyridine-5-carboxamide], the EC50 was above 10 µM and the Emax was found to be 41.1%.
Consider `Cn1cc(-c2ccc(Cc3cc(C(=O)N[C@H]4CCCCC[C@@H]4O)nc4ccsc34)c(F)c2)cn1` [Compound 54, 7-[[2-fluoro-4-(1-methylpyrazol-4-yl)phenyl]methyl]-N-[(1S,2S)-2-hydroxycycloheptyl]thieno[3,2-b]pyridine-5-carboxamide], for which the EC50 is above 10 µM and the Emax amounted to 53.1%.
Turning to `O=C(NC1CCOCC1)c1cc(Cc2ccc(-c3cscn3)cc2)c2sccc2n1` [Compound 232, N-tetrahydropyran-4-yl-7-[(4-thiazol-4-ylphenyl)methyl]thieno[3,2-b]pyridine-5-carboxamide], the concentration giving a half-maximal response (EC50) was 0.134 µM and the maximum response (Emax) came out at 75.7%.
On the same counts, the results for `O=C(NC1COC1)c1cc(Cc2ccc(-c3nccs3)cc2)c2sccc2n1` [Compound 365, N-(oxetan-3-yl)-7-[(4-thiazol-2-ylphenyl)methyl]thieno[3,2-b]pyridine-5-carboxamide] are 1.35 µM and 57.9%.
Consider `Cc1nn(C)cc1-c1ccc(Cc2cc(C(=O)N[C@H]3CCC[C@@H]3O)nc3ccsc23)cc1` [Compound 247, 7-[[4-(1,3-dimethylpyrazol-4-yl)phenyl]methyl]-N-[(1S,2S)-2-hydroxycyclopentyl]thieno[3,2-b]pyridine-5-carboxamide], for which the EC50 stood at 4.06 µM and the Emax was 30.6%.
`Cc1nn(C)c(C)c1-c1ccc(Cc2cc(C(=O)N[C@@H]3CC[C@H]3O)nc3ccsc23)cc1` [Compound 240, N-[(1R,2R)-2-hydroxycyclobutyl]-7-[[4-(1,3,5-trimethylpyrazol-4-yl)phenyl]methyl]thieno[3,2-b]pyridine-5-carboxamide]: the EC50 was above 10 µM and the Emax was 19.9%.
On to `O=C(c1cc(Cc2ccc(-n3cccn3)cc2)c2sccc2n1)N1CCC[C@@H](O)C1` [Compound 81, [(3R)-3-hydroxy-1-piperidyl]-[7-[(4-pyrazol-1-ylphenyl)methyl]thieno[3,2-b]pyridin-5-yl]methanone], for which the EC50 was above 10 µM and the Emax was 33%.
For `O=C(N[C@H]1CCOC1)c1cc(Cc2ccc(-n3cccn3)cc2)c2sccc2n1` [Compound 278, 7-[(4-pyrazol-1-ylphenyl)methyl]-N-[(3S)-tetrahydrofuran-3-yl]thieno[3,2-b]pyridine-5-carboxamide], the EC50 amounted to 0.485 µM and the Emax worked out at 73.4%.
As to `O=C(N[C@H]1CCCC[C@@H]1O)c1cc(Cc2c(F)cc(-c3cscn3)cc2F)c2sccc2n1` [Compound 273, 7-[(2,6-difluoro-4-thiazol-4-yl-phenyl)methyl]-N-[(1S,2S)-2-hydroxycyclohexyl]thieno[3,2-b]pyridine-5-carboxamide], the EC50 came to 0.272 µM and the Emax amounted to 73.6%.
On the same counts, the results for `CC1(NC(=O)c2cc(Cc3ccc(-n4cccn4)cc3)c3sccc3n2)COC1` [Compound 276, N-(3-methyloxetan-3-yl)-7-[(4-pyrazol-1-ylphenyl)methyl]thieno[3,2-b]pyridine-5-carboxamide] are 5.5 µM and 64.5%.
As for `COC1CC(NC(=O)c2cc(Cc3ccc(-n4cccn4)cc3)c3sccc3n2)C1` (centres unmarked) [Compound 431, N-(3-methoxycyclobutyl)-7-[(4-pyrazol-1-ylphenyl)methyl]thieno[3,2-b]pyridine-5-carboxamide], the EC50 worked out at 1.48 µM and the maximum response (Emax) is 69.3%.
As for `CO[C@@H]1CCCC[C@H]1NC(=O)c1cc(Cc2ccc(C(F)(F)F)nc2)c2sccc2n1` [Compound 93, N-[(1R,2R)-2-methoxycyclohexyl]-7-[[6-(trifluoromethyl)-3-pyridyl]methyl]thieno[3,2-b]pyridine-5-carboxamide], the 50% effective concentration (EC50) is 6.72 µM and the Emax was found to be 70.3%.
